According to ChEMBL document CHEMBL1201862, “PubChem BioAssay data set” (2004):
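Protocol summary: plate cells (96-well), add compound at 5 concentrations, incubate 48 h, interpolate endpoints linearly. GI50: concentration for 50% inhibition of growth.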 Active and inactive are the calls of the source. No stated cut-off is given here; in the data, active = GI50 up to about 1.1 µM and inactive = higher.

Experiments:
Test in all cases: NCI-60 cell line screen, 48 h
SF-539 = test system: SF-539
DU-145 = test system: DU-145
786-0 = test system: 786-0
UACC-62 = test system: UACC-62
HL-60 = test system: HL-60
IGROV-1 = test system: IGROV-1
A498 = test system: A498
LOX IMVI = test system: LOX IMVI
MCF7 = test system: MCF7
SF-295 = test system: SF-295
SK-MEL-28 = test system: SK-MEL-28
SNB-19 = test system: SNB-19
NCI-H23 = test system: NCI-H23
SR = test system: SR
SN12C = test system: SN12C
HOP-92 = test system: HOP-92
COLO 205 = test system: COLO 205
OVCAR-3 = test system: OVCAR-3
RPMI-8226 = test system: RPMI-8226
K562 = test system: K562

Row | SMILES | GI50 (SF-539) | GI50 (DU-145) | GI50 (786-0) | GI50 (UACC-62) | GI50 (HL-60) | GI50 (IGROV-1) | GI50 (A498) | GI50 (LOX IMVI) | GI50 (MCF7) | GI50 (SF-295) | GI50 (SK-MEL-28) | GI50 (SNB-19) | GI50 (NCI-H23) | GI50 (SR) | GI50 (SN12C) | GI50 (HOP-92) | GI50 (COLO 205) | GI50 (OVCAR-3) | GI50 (RPMI-8226) | GI50 (K562)
1 | COc1cc(C2=C(c3cc(OC)c4ccccc4c3OC)C(=O)c3ccccc3C2=O)c(OC)c2ccccc12 | > 100 µM (inactive) | > 100 µM (inactive) | > 100 µM (inactive) | > 100 µM (inactive) | 10.2 µM (inactive) | > 100 µM (inactive) | > 100 µM (inactive) | > 100 µM (inactive) | > 100 µM (inactive) | > 100 µM (inactive) | > 100 µM (inactive) | > 100 µM (inactive) | > 100 µM (inactive) | > 100 µM (inactive) | > 100 µM (inactive) | > 100 µM (inactive) | > 100 µM (inactive) | > 100 µM (inactive) | – | –
2 | O=C1NC(N2CCCCC2)=N/C1=C\c1ccccc1O | 37.1 µM (inactive) | > 100 µM (inactive) | > 100 µM (inactive) | – | 43.5 µM (inactive) | > 100 µM (inactive) | > 100 µM (inactive) | > 100 µM (inactive) | > 100 µM (inactive) | > 100 µM (inactive) | > 100 µM (inactive) | > 100 µM (inactive) | > 100 µM (inactive) | > 10 µM (inactive) | > 100 µM (inactive) | > 100 µM (inactive) | > 100 µM (inactive) | > 100 µM (inactive) | > 100 µM (inactive) | > 100 µM (inactive)
3 | Cc1ccc(N)c(S)c1 | 17.5 µM (inactive) | 15.7 µM (inactive) | 16.1 µM (inactive) | 17.6 µM (inactive) | 25.2 µM (inactive) | 17.7 µM (inactive) | 16.7 µM (inactive) | 16.4 µM (inactive) | 18.5 µM (inactive) | 18 µM (inactive) | 27.5 µM (inactive) | 21.1 µM (inactive) | 17.7 µM (inactive) | 18 µM (inactive) | 1.7 µM (inactive) | 16.6 µM (inactive) | 22.7 µM (inactive) | 21.3 µM (inactive) | – | 28.6 µM (inactive)
4 | CC1(C)OCC(COC(=O)C=[N+]=[N-])O1 (configuration not stated) | – | > 100 µM (inactive) | > 100 µM (inactive) | > 100 µM (inactive) | > 100 µM (inactive) | > 100 µM (inactive) | > 100 µM (inactive) | > 100 µM (inactive) | 46.5 µM (inactive) | > 100 µM (inactive) | > 100 µM (inactive) | > 100 µM (inactive) | > 100 µM (inactive) | > 100 µM (inactive) | > 100 µM (inactive) | 14.9 µM (inactive) | > 100 µM (inactive) | > 100 µM (inactive) | > 100 µM (inactive) | > 10 µM (inactive)
5 | CN1C(Cl)=NS(=O)(=O)c2ccccc21 | > 100 µM (inactive) | > 100 µM (inactive) | > 100 µM (inactive) | > 100 µM (inactive) | 35.7 µM (inactive) | > 100 µM (inactive) | 58.2 µM (inactive) | > 100 µM (inactive) | > 100 µM (inactive) | > 100 µM (inactive) | > 100 µM (inactive) | > 100 µM (inactive) | > 100 µM (inactive) | 18.7 µM (inactive) | > 100 µM (inactive) | > 100 µM (inactive) | 43 µM (inactive) | > 100 µM (inactive) | – | > 100 µM (inactive)
6 | CN1CC[C@@H](c2c(O)cc(O)c3c(=O)cc(-c4ccccc4Cl)oc23)[C@@H](O)C1 | 0.0343 µM (active) | 0.0411 µM (active) | 0.0414 µM (active) | 0.0273 µM (active) | 0.0211 µM (active) | 0.0304 µM (active) | 0.0507 µM (active) | 0.0191 µM (active) | 0.0239 µM (active) | 0.0604 µM (active) | 0.0455 µM (active) | 0.0407 µM (active) | 0.0365 µM (active) | 0.0263 µM (active) | 0.0471 µM (active) | 0.0556 µM (active) | 0.034 µM (active) | – | 0.0326 µM (active) | 0.167 µM (active)
7 | CCCCCCCC/C=C/CCCCCCCC1CC(O)C(=O)O1 (configuration not stated) | – | 36.7 µM (inactive) | 42.4 µM (inactive) | 63.2 µM (inactive) | 35.3 µM (inactive) | 85.3 µM (inactive) | 28.4 µM (inactive) | 78.3 µM (inactive) | 32.4 µM (inactive) | 30.7 µM (inactive) | 72.3 µM (inactive) | 65.2 µM (inactive) | 44.8 µM (inactive) | 27.7 µM (inactive) | > 10 µM (inactive) | 26.7 µM (inactive) | 30.1 µM (inactive) | 27.9 µM (inactive) | 25.8 µM (inactive) | 42 µM (inactive)
8 | C1CCCCC2(CCCCCCCCC3(CCC1)OCCO3)OCCO2 | > 100 µM (inactive) | > 100 µM (inactive) | > 100 µM (inactive) | > 100 µM (inactive) | > 100 µM (inactive) | > 100 µM (inactive) | > 100 µM (inactive) | > 100 µM (inactive) | > 100 µM (inactive) | > 100 µM (inactive) | > 100 µM (inactive) | > 100 µM (inactive) | > 100 µM (inactive) | > 100 µM (inactive) | > 100 µM (inactive) | > 100 µM (inactive) | > 100 µM (inactive) | > 100 µM (inactive) | – | > 100 µM (inactive)
9 | CCCCCCCCCCCCCC(=O)O.O=CC(O)C(O)C(OC1OC(CO)C(O)C(O)C1O)C(O)CO (configuration not stated) | > 100 µM (inactive) | > 100 µM (inactive) | > 100 µM (inactive) | 74.6 µM (inactive) | 18.7 µM (inactive) | 26.3 µM (inactive) | > 100 µM (inactive) | – | > 100 µM (inactive) | 73.1 µM (inactive) | > 100 µM (inactive) | > 100 µM (inactive) | > 100 µM (inactive) | 1 µM (active) | 80.4 µM (inactive) | 48.3 µM (inactive) | 73.5 µM (inactive) | > 100 µM (inactive) | 19.8 µM (inactive) | 26.4 µM (inactive)
10 | c1ccc([P+](CCCCCC[P+](c2ccccc2)(c2ccccc2)c2ccccc2)(c2ccccc2)c2ccccc2)cc1 | 5.24 µM (inactive) | 11.9 µM (inactive) | 24 µM (inactive) | 18 µM (inactive) | 10.6 µM (inactive) | 3.84 µM (inactive) | 5.04 µM (inactive) | 12.2 µM (inactive) | 5.94 µM (inactive) | 59.4 µM (inactive) | 17.5 µM (inactive) | 0.906 µM (active) | 4.71 µM (inactive) | 21.1 µM (inactive) | 15.3 µM (inactive) | 8.32 µM (inactive) | 2.68 µM (inactive) | 19.8 µM (inactive) | – | 11.7 µM (inactive)
11 | Cc1ccn2c(CCc3nnc4cc(C)ccn34)nnc2c1 | > 100 µM (inactive) | > 100 µM (inactive) | > 100 µM (inactive) | > 100 µM (inactive) | 0.129 µM (active) | > 100 µM (inactive) | > 100 µM (inactive) | – | > 100 µM (inactive) | > 100 µM (inactive) | > 100 µM (inactive) | > 100 µM (inactive) | > 100 µM (inactive) | 15 µM (inactive) | > 100 µM (inactive) | > 100 µM (inactive) | > 100 µM (inactive) | > 100 µM (inactive) | > 100 µM (inactive) | –
